From publication PMC7966987, “Insights into the catalytic properties of the mitochondrial rhomboid protease PARL” (The Journal of Biological Chemistry, 2021)
Where “and” joins values, the source holds several entries; their conditions need not be identical. Identical values can stand only once. Entries after “also recorded” stand apart in the source; their conditions may differ.

Tests used:
PARLΔ77 [1] = target: T1, PARLΔ77 (Homo sapiens, UniProt Q9H300); assay: IQ-peptide substrate cleavage kinetics, PARLΔ77 in POPE/POPC proteoliposomes lacking CL; assay type: biochemical; settings: pH 7.0, 37 °C, mean ± SEM, n=3
T1 construct: GFP-hexahistidine (behind a TEV cleavage site) (C, cleaved yes); made in house; host or cells: Pichia pastoris
T1 sequence (Q9H300 78-379): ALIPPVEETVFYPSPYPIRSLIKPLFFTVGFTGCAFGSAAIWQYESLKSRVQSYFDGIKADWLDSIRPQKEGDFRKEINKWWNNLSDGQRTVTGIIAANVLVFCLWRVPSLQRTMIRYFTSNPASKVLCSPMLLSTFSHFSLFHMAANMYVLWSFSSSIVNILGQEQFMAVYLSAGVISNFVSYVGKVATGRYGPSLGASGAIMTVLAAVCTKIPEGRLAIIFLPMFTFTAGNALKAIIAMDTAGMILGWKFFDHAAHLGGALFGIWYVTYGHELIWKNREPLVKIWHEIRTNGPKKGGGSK
From the text: To examine if CL influences PARL activity in a membrane environment, we prepared PL samples containing β-truncated PARL and conducted detailed kinetic analysis with the three IQ-peptide substrates (Fig. 3B). Two independent PL samples were generated: the first consisted only of POPC and POPE, while the second also contained CL. […] When CL was omitted from the PL, we observed two to tenfold slower turnover rates of cleavage for IQ-peptide substrates by β-truncated PARL (Fig. 3B and Table S7).
(§1) Assays with FRET-PINK1^70–134 were conducted as previously described ([26]). For EDANS/Dabcyl 10-mer IQ peptides (PINK1, PGAM5, Smac/Diablo), lyophilized peptides were initially dissolved in DMSO to obtain a stock solution. The IQ peptide substrates in a concentration range of 0.1–70 μM were incubated with activity assay buffer (50 mM Tris-HCl pH 7.0, 150 mM NaCl, 10% glycerol, 0.1% DDM) in a 384-well black-bottomed plate at 37 °C for 30 min in a multiwell plate reader (SynergyMx, BioTek). For all concentrations of IQ peptide, the DMSO was kept constant at 5%. Following preincubation, PARL was added to a final concentration of 0.8 μM to initiate the cleavage reaction. Fluorescence readings were taken every 3 min over a 3 h time course at ƛex = 336 nm and ƛem = 490 nm. The initial velocity was determined from the fluorescence readings over the time course. For each substrate concentration, a no-enzyme control was subtracted to eliminate background fluorescence changes not related to substrate cleavage. Relative fluorescence units were converted to concentration (μM) by determining the maximum change in fluorescence observed for each substrate concentration when fully digested. GraphPad Prism software was used for Michaelis–Menten analysis of kinetic curves. All kinetic data were obtained using at least three biological replicates (different enzyme preparations) with technical duplicates for each experiment. For kinetic measurements in detergent with all three substrates, the activity assays were repeated at least five times. In addition, after each protease purification, the quality control of purified PARL was controlled by measuring its enzymatic activity. Minimum of three experimental replicates with two technical replicates were used for data analysis.
(§2) E. coli polar lipids (Avanti), 400 μg in chloroform, were dried under nitrogen stream in a glass tube to yield a thin film of lipid. The tube was incubated overnight in a desiccator to completely remove all traces of solvent. In total, 50 μl of water and DDM detergent was added to the lipid film for resuspension at room temperature for 10 min, followed by the addition of purified PARL (400 μg) in 50 mM Tris-HCl, pH 8.0, 150 mM NaCl, 20% glycerol, 0.1% DDM, to yield the final weight ratio of 1 PARL:1 lipid:2 detergent. The detergent was slowly removed by the addition of SM2 Biobeads (Bio-Rad) while stirring on ice for 6 h to allow for the generation of proteoliposomes (PL); the process was controlled by the regimen of Biobead addition. To purify the PL, 50%:20% sucrose density gradient ultracentrifugation was used. A TAMRA probe (ThermoFisher) was used to determine the orientation of reconstituted PARL, which specifically and covalently labels serine residues of an enzymatically active serine protease. In total, 2 μM of TAMRA probe was added to PL samples and incubated for 1 h, allowing the TAMRA probe to label only the outward-facing accessible active sites. The same amount of PL, but with 1% DDM added to dissolve lipid vesicles incubated with 2 μM of TAMRA probe at the same conditions, was used as a benchmark for 100% accessible protein amount. The reaction was quenched with addition of SDS-containing sample buffer and the protein samples were visualized with SDS-PAGE followed by fluorescent gel scanning. The bands were quantified by densitometry analysis. […]

PARLΔ77 [2] = target: T1, PARLΔ77; assay: IQ-peptide substrate cleavage kinetics, PARLΔ77 in proteoliposomes; assay type: biochemical; settings: for ranking of substrate cleavage: in proteoliposomes, by kcat, KM or kcat/KM
From the text: To assess the activity of recombinant PARL toward known substrates in a lipid bilayer, full-length and β-truncated PARL were reconstituted in proteoliposomes (PLs) using Escherichia coli lipids that closely resemble the composition of the IMM ([31]). We determined that the EDANS/Dabcyl - FRET tags prevented incorporation of the substrates into PL; however, the substrate could still be cleaved since the active site is proposed to be near the lipid/water interface ([40], [41]) analogous to bacterial rhomboid proteases (Fig. 1). To calculate the specific activity of the protease, we quantified the fraction of PARL in the PLs with an outward facing active site using a membrane […] activity-based TAMRA-labeled fluorophosphonate probe ([42]). […] These values were used to calculate specific activity of the PARL protease. Next, we compared cleavage of three IQ-peptide substrates by reconstituted full-length mature PARLΔ55 and the β-truncated form, PARLΔ77 (Fig. 3, Tables S5 and S6).
as §1
as §2, with “sites.” for “sites. The same amount of PL, but with 1% DDM added to dissolve lipid vesicles incubated with 2 μM of TAMRA probe at the same conditions, was used as a benchmark for 100% accessible protein amount. The reaction was quenched with addition of SDS-containing sample buffer and the protein samples were visualized with SDS-PAGE followed by fluorescent gel scanning. The bands were quantified by densitometry analysis.”

Row | Substance | Km (PARLΔ77 [1]) [µM] | kcat (turnover rate) (PARLΔ77 [1]) [s⁻¹] | kcat/KM (catalytic efficiency) (PARLΔ77 [1]) [M⁻¹ s⁻¹] | ranking of substrate cleavage (PARLΔ77 [2]) | turnover rate (PARLΔ77 [2]; PARLΔ77 in proteoliposomes)
1 | (DABCYL)-AVFLAFGLGL-Glu(EDANS) [IQ-PINK1^99–108, internally quenched DABCYL/EDANS peptide substrate based on PINK1 PARL cleavage site] | 14 ± 5 | 0.0019 ± 0.00028 | 140 ± 56 | – | –
2 | (DABCYL)-AVFLSAVAVG-Glu(EDANS) [IQ-PGAM5^20–29, internally quenched DABCYL/EDANS peptide substrate based on PGAM5 PARL cleavage site] | 8 ± 3 | 0.0025 ± 0.00056 | 278 ± 83 | the preferred substrate with the lowest KM and the highest catalytic efficiency; also recorded: cleaved with the highest efficiency | –
3 | (DABCYL)-GVT LCAVPIA-Glu(EDANS) [IQ-Smac/Diablo^51–60, internally quenched DABCYL/EDANS peptide substrate based on Smac/Diablo PARL cleavage site] | 3.8 ± 1 | 0.00133 ± 8.3e-05 | 333 ± 83 | the fastest | 1.0 ± 0.1 min⁻¹ and 1 min⁻¹
